# Target: T1, HDM2 (Homo sapiens, UniProt Q00987)
# T1 construct: Thioredoxin (N); made in house; host or cells: E. coli strain BL21(DE3)Rosetta
# Assay: FRET assay (HDM2 inhibition; method not described in this part)
# Type: binding
# Settings: Table 2
# T1 sequence (Q00987 17-125): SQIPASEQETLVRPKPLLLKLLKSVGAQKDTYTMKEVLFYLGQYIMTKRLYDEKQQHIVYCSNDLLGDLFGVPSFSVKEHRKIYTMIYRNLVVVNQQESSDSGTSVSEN
row,SMILES,IC50
1,"COc1cc(OC)cc(-c2nc3nc(C(=O)O)nc(N[C@H](C)C4CC4)c3n2Cc2ccc(C(F)(F)F)cc2)c1 [Example 2.28, 6-{[(1R)-1-cyclopropylethyl]amino}-8-(3,5-dimethoxyphenyl)-7-[4-(trifluoromethyl)benzyl]-7H-purine-2-carboxylic acid]",455 nM
2,"C[C@@H](Nc1nc(C(=O)O)nc2nc(-c3cccc(N(C)C)c3)n(Cc3ccc(C(F)(F)F)cc3)c12)C1CC1 [Example 2.29, 6-{[(1R)-1-cyclopropylethyl]amino}-8-[3-(dimethylamino)phenyl]-7-[4-(trifluoromethyl)benzyl]-7H-purine-2-carboxylic acid]",105 nM
3,"Cc1ccccc1-c1nc2nc(C(=O)O)nc(N[C@H](C)C3CC3)c2n1Cc1ccc(C(F)(F)F)cc1 [Example 2.30, 6-{[(1R)-1-cyclopropylethyl]amino}-8-(2-methylphenyl)-7-[4-(trifluoromethyl)benzyl]-7H-purine-2-carboxylic acid]",140 nM
4,"C[C@@H](Nc1nc(C(=O)O)nc2nc(-c3ccc(Cl)c(Cl)c3)n(Cc3ccc(C(F)(F)F)cc3)c12)C1CC1 [Example 2.31, 6-{[(1R)-1-cyclopropylethyl]amino}-8-(3,4-dichlorophenyl)-7-[4-(trifluoromethyl)benzyl]-7H-purine-2-carboxylic acid]",154 nM
5,"C[C@@H](Nc1nc(C(=O)O)nc2nc(-c3ccc(C(C)(C)C)cc3)n(Cc3ccc(C(F)(F)F)cc3)c12)C1CC1 [Example 2.32, 8-(4-tert-butylphenyl)-6-{[(1R)-1-cyclopropylethyl]amino}-7-[4-(trifluoromethyl)benzyl]-7H-purine-2-carboxylic acid]",1950 nM
6,"Cc1ccc(-c2nc3nc(C(=O)O)nc(N[C@H](C)C4CC4)c3n2Cc2ccc(C(F)(F)F)cc2)cc1 [Example 2.33, 6-{[(1R)-1-cyclopropylethyl]amino}-8-(4-methylphenyl)-7-[4-(trifluoromethyl)benzyl]-7H-purine-2-carboxylic acid]",401 nM
7,"C[C@@H](Nc1nc(C(=O)O)nc2nc(-c3ccccc3OC(F)(F)F)n(Cc3ccc(C(F)(F)F)cc3)c12)C1CC1 [Example 2.34, 6-{[(1R)-1-cyclopropylethyl]amino}-8-[2-(trifluoromethoxy)phenyl]-7-[4-(trifluoromethyl)benzyl]-7H-purine-2-carboxylic acid]",21 nM
8,"C[C@@H](Nc1nc(C(=O)O)nc2nc(-c3cnn(C)c3)n(Cc3ccc(C(F)(F)F)cc3)c12)C1CC1 [Example 2.35, 6-{[(1R)-1-cyclopropylethyl]amino}-8-(1-methyl-1H-pyrazol-4-yl)-7-[4-(trifluoromethyl)benzyl]-7H-purine-2-carboxylic acid]",510 nM
9,"Cc1ccc(-c2nc3nc(C(=O)O)nc(N[C@H](C)C4CC4)c3n2Cc2ccc(C(F)(F)F)cc2)cn1 [Example 2.36, 6-{[(1R)-1-cyclopropylethyl]amino}-8-(6-methylpyridin-3-yl)-7-[4-(trifluoromethyl)benzyl]-7H-purine-2-carboxylic acid]",1300 nM
10,"C[C@@H](Nc1nc(C(=O)O)nc2nc(-c3cccc(N(C)C)c3)n(Cc3ccc(C(F)(F)F)cc3)c12)C1CCC1 [Example 2.37, 6-{[(1R)-1-cyclobutylethyl]amino}-8-[3-(dimethylamino)phenyl]-7-[4-(trifluoromethyl)benzyl]-7H-purine-2-carboxylic acid]",6.6 nM
11,"C[C@@H](Nc1nc(C(=O)O)nc2nc(-c3cccc(C(F)(F)F)c3)n(Cc3ccc(C(F)(F)F)cc3)c12)C1CCC1 [Example 2.38, 6-{[(1R)-1-cyclobutylethyl]amino}-7-[4-(trifluoromethyl)benzyl]-8-[3-(trifluoromethyl)phenyl]-7H-purine-2-carboxylic acid]",11.2 nM
12,"C[C@@H](Nc1nc(C(=O)O)nc2nc(-c3cccc(OC(F)(F)F)c3)n(Cc3ccc(C(F)(F)F)cc3)c12)C1CCC1 [Example 2.39, 6-{[(1R)-1-cyclobutylethyl]amino}-8-[3-(trifluoromethoxy)phenyl]-7-[4-(trifluoromethyl)benzyl]-7H-purine-2-carboxylic acid]",52 nM

# Source: patent EP2951180B1, “2,6,7,8 SUBSTITUTED PURINES AS HDM2 INHIBITORS” (Merck Sharp & Dohme Corp., priority 2013, dated 2014)
